The results in this text go back to ChEMBL document CHEMBL3826977, “Discovery and Structural Characterization of G-quadruplex DNA in Human Acetyl-CoA Carboxylase Gene Promoters: Its Role in Transcriptional Regulation and as a Therapeutic Target for Human Disease” (J Med Chem, 2016).

In general, inhibition refers to the change of the read-out against control, counted positive when it falls. Usually Kd stands for the constant that tells how readily two partners part at equilibrium. Higher therefore signals weaker binding.

Activity calls are given as the source filed them. The calls are words filed in the database; no cut-off is given here.

Series [1] is filed under the species Homo sapiens. In words: Binding affinity to human ACC1 promoter2 G-quadraduplex DNA assessed as inhibition of Taq-polymerase catalyzed primer extension preincubated for 1 hr followed by addition of Taq-polymerase measured after 30 mins in presence of KCl by Taq-polymerase stop assay.
Series [2] is filed under the species Homo sapiens. In words: Binding affinity to human ACC1 promoter2 G-quadraduplex DNA assessed as bathochromic red shift at 5 uM by UV-vis absorption spectroscopy.
The species named for series [3] is Homo sapiens. The experiment in a line: Binding affinity to human ACC1 promoter1 G-quadraduplex DNA assessed as decrease in fluorescence emission intensity by fluorescence emission spectroscopy.
The subject of series [4] is HeLa. The experiment in a line: Binding affinity to human wild type ACC1 promoter2 G-quadraduplex DNA transfected in human HeLa cells assessed as suppression of ACC1 gene expression at 0.1 to 25 uM after 24 hrs by dual luciferase reporter assay relative to control. The series is classed as cell-based.
Series [5] concerns HeLa. In words: Binding affinity to human wild type ACC1 promoter1 G-quadraduplex DNA transfected in human HeLa cells assessed as suppression of ACC1 gene expression after 24 hrs by dual luciferase reporter assay. In kind it is cell-based. On the technique in general: A reporter such as luciferase makes a cellular process visible.
For series [6], the species on record is Homo sapiens. The experiment in a line: Binding affinity to human ACC1 promoter1 G-quadraduplex DNA mutant assessed as inhibition of Taq-polymerase catalyzed primer extension preincubated for 1 hr followed by addition of Taq-polymerase measured after 30 mins by Taq-polymerase stop assay.
Series [7] is filed under the species Homo sapiens. In words: Binding affinity to human ACC1 promoter2 G-quadraduplex DNA assessed as hyperchromic shift at 5 uM by UV-vis absorption spectroscopy.
Series [8] is filed under the species Homo sapiens. The experiment in a line: Binding affinity to human ACC1 promoter1 G-quadraduplex DNA assessed as inhibition of Taq-polymerase catalyzed primer extension preincubated for 1 hr followed by addition of Taq-polymerase measured after 30 mins by Taq-polymerase stop assay.
The species named for series [9] is Homo sapiens. In words: Binding affinity to human ACC1 promoter1 G-quadraduplex DNA at 5 uM by UV-vis absorption spectroscopy.
The species named for series [10] is Homo sapiens. In words: Binding affinity to human ACC1 promoter2 G-quadraduplex DNA mutant assessed as inhibition of Taq-polymerase catalyzed primer extension preincubated for 1 hr followed by addition of Taq-polymerase measured after 30 mins in presence of KCl by Taq-polymerase stop assay.
Series [11] has as its system HeLa. In words: Binding affinity to human wild type ACC1 promoter1 G-quadraduplex DNA transfected in human HeLa cells assessed as suppression of ACC1 gene expression at 0.1 to 25 uM after 24 hrs by dual luciferase reporter assay relative to control. The series is classed as cell-based.
Series [12] is filed under the species Homo sapiens. In words: Binding affinity to human ACC1 promoter2 G-quadraduplex DNA assessed as decrease in fluorescence emission intensity by fluorescence emission spectroscopy.
Series [13] is filed under the species Homo sapiens. The experiment in a line: Binding affinity to human ACC1 promoter2 G-quadraduplex DNA assessed as apparent isosbestic point at 5 uM by UV-vis absorption spectroscopy.
Series [14] deals with HeLa. The experiment in a line: Binding affinity to human wild type ACC1 promoter2 G-quadraduplex DNA transfected in human HeLa cells assessed as suppression of ACC1 gene expression after 24 hrs by dual luciferase reporter assay. In kind it is cell-based.
The nature of series [15]: Binding affinity to human ACC1 promoter2 G-quadraduplex DNA.
A short description of series [16]: Binding affinity to human ACC1 promoter1 G-quadraduplex DNA.
In series [17] the test system is HeLa. The experiment in a line: Binding affinity to human ACC1 promoter G-quadraduplex DNA transfected in human HeLa cells assessed as suppression of ACC1 gene expression after 24 hrs by qRT-PCR method. The series is classed as cell-based. (In general: Quantitative PCR measures a nucleic acid by following its amplification.)
Series [18] has as its system HeLa. In words: Effect on GAPDH gene expression in human HeLa cells at 5 to 20 uM after 24 hrs by qRT-PCR method. In kind it is ADME, cell-based.

As to `C[n+]1ccc(-c2c3nc(c(-c4cc[n+](C)cc4)c4ccc([nH]4)c(-c4cc[n+](C)cc4)c4ccc([nH]4)c(-c4cc[n+](C)cc4)c4nc2C=C4)C=C3)cc1`, the inhibition result in [1] was “Dose-dependent effect”; in series [4], 84%; in series [5], “Dose-dependent effect”; in [8] it was “Dose-dependent effect”; in series [11] it was 67%; in [14] it was “Dose-dependent effect”. Besides, the Activity in series [2] stood at 18 nm; in series [13], 432 nm. The outcome in series [3], in series [7], in series [9] and in [12] was Active. In addition, in series [6], the inhibition result was “inactive”. For the same compound, the inhibition result in series [10] was “Active”.

`C[n+]1ccc(-c2c3nc(c(-c4cc[n+](C)cc4)c4ccc([nH]4)c(-c4cc[n+](C)cc4)c4nc(c(-c5cc[n+](C)cc5)c5ccc2[nH]5)C=C4)C=C3)cc1`: the dissociation constant (Kd) in series [15] and in series [16] was 70 nM in each case.

For `c1cc2c(cc1-c1nc3cc(N4CCOCC4)ccc3[nH]1)c1cc(-c3nc4cc(N5CCOCC5)ccc4[nH]3)ccc1n2CCCCN1CCOCC1`, the inhibition result in [17] was “Dose-dependent effect”. Moreover, in [18], the Activity result was “Non-toxic”.
